# From PubChem BioAssay (NCI)
#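 Each compound was tested at five concentrations against cells in 96-well plates for 48 hours. The concentration for full growth arrest is given as TGI.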
# Tests used:
# Experiment in all cases: NCI anticancer screen, dose series, 48 h
# [1] = system: 786-0 renal
# [2] = system: A498 renal
# [3] = system: A549 NSCLC
# [4] = system: ACHN renal
# [5] = system: BT-549 breast
# [6] = system: CAKI-1 renal
# [7] = system: CCRF-CEM leukemia
# [8] = system: COLO 205 colon
# [9] = system: DU-145 prostate
# [10] = system: EKVX NSCLC
# [11] = system: HCC-2998 colon
# [12] = system: HCT-116 colon
# [13] = system: HCT-15 colon
# [14] = system: HL-60(TB) leukemia
# [15] = system: HOP-62 NSCLC
# [16] = system: HOP-92 NSCLC
# [17] = system: HS 578T breast
# [18] = system: HT29 colon
# [19] = system: IGROV1 ovarian
# [20] = system: K-562 leukemia
# [21] = system: KM12 colon
# [22] = system: LOX IMVI melanoma
# [23] = system: M14 melanoma
# [24] = system: MALME-3M melanoma
# [25] = system: MCF7 breast
# [26] = system: MDA-MB-231 breast
# [27] = system: MDA-MB-435
# [28] = system: MOLT-4 leukemia
# [29] = system: NCI-H226 lung
# [30] = system: NCI-H23 lung
# [31] = system: NCI-H460 lung
# [32] = system: NCI-H522 lung
# [33] = system: NCI/ADR-RES ovarian
# [34] = system: OVCAR-3 ovarian
# [35] = system: OVCAR-4 ovarian
# [36] = system: OVCAR-5 ovarian
# [37] = system: OVCAR-8 ovarian
# [38] = system: PC-3 prostate
# [39] = system: RPMI-8226 leukemia
# [40] = system: RXF 393 renal
# [41] = system: SF-268 CNS
# [42] = system: SF-295 CNS
# [43] = system: SF-539 CNS
# [44] = system: SK-MEL-2 melanoma
# [45] = system: SK-MEL-28 melanoma
# [46] = system: SK-MEL-5 melanoma
# [47] = system: SK-OV-3 ovarian
# [48] = system: SN12C renal
# [49] = system: SNB-19 CNS
# [50] = system: SNB-75 CNS
# [51] = system: SR leukemia
# [52] = system: SW-620 colon
# [53] = system: T-47D breast
# [54] = system: TK-10 renal
# [55] = system: U251 CNS
# [56] = system: UACC-257 melanoma
# [57] = system: UACC-62 melanoma
# [58] = system: UO-31 renal
structure (smiles),measurement,setting,value
CCCc1cn2c(/C=N/N=C(N)N)c(-c3c(OC)ccc(OC)c3[N+](=O)[O-])nc2s1,TGI,[1],28.1 µM
same,TGI,[2],44.6 µM
same,TGI,[3],51.3 µM
same,TGI,[4],35.6 µM
same,TGI,[5],35.6 µM
same,TGI,[6],30.6 µM
same,TGI,[7],8.43 µM
same,TGI,[8],6.42 µM
same,TGI,[9],35.6 µM
same,TGI,[10],44.8 µM
same,TGI,[11],4.59 µM
same,TGI,[12],22.2 µM
same,TGI,[13],37 µM
same,TGI,[14],27.6 µM
same,TGI,[15],31.1 µM
same,TGI,[16],47 µM
same,TGI,[17],41.9 µM
same,TGI,[18],> 38.5 µM
same,TGI,[19],34.8 µM
same,TGI,[20],11.5 µM
same,TGI,[21],11.6 µM
same,TGI,[22],9.13 µM
same,TGI,[23],21.3 µM
same,TGI,[24],30 µM
same,TGI,[25],20.8 µM
same,TGI,[26],16.2 µM
same,TGI,[27],19.9 µM
same,TGI,[28],4.19 µM
same,TGI,[29],38.3 µM
same,TGI,[30],26.1 µM
same,TGI,[31],41.6 µM
same,TGI,[32],34.2 µM
same,TGI,[33],64.6 µM
same,TGI,[34],18.2 µM
same,TGI,[35],66.2 µM
same,TGI,[36],34.5 µM
same,TGI,[37],47.3 µM
same,TGI,[38],26.5 µM
same,TGI,[39],8.7 µM
same,TGI,[40],41.2 µM
same,TGI,[41],47.2 µM
same,TGI,[42],35.7 µM
same,TGI,[43],36.9 µM
same,TGI,[44],46.5 µM
same,TGI,[45],19.4 µM
same,TGI,[46],32.3 µM
same,TGI,[47],43.3 µM
same,TGI,[48],31.7 µM
same,TGI,[49],49.9 µM
same,TGI,[50],> 59.1 µM
same,TGI,[51],4.34 µM
same,TGI,[52],32.9 µM
same,TGI,[53],24.3 µM
same,TGI,[54],41 µM
same,TGI,[55],18.7 µM
same,TGI,[56],28.4 µM
same,TGI,[57],25.4 µM
same,TGI,[58],45 µM
